Converted amounts (≈) assume the structure as drawn. “And” between values parts separate entries of the source, which are not always exact repeats. Equal values may be shown once. Read-outs that look alike come from different tables or passages of the source.
Assays:
LogD = conditions: pH 7.4
in vitro [1] = assay: in vitro; design: Cytotoxicity in iPSC-derived pneumocytes, CC50; conditions: human, ipsc-derived pneumocytes; ASAP-0008327-001=ASAP-0011153-001; read-out: 50.0
HeLa-ACE2 cells = conditions: protocol HeLa-ACE2 cytotoxicity; for perc_max_measured: highest measured response of the dose series; for perc_min_measured: lowest measured response of the dose series
[2] = test system: SARS-CoV-2, isolate USA-WA1/2020; assay: microbe, parasite or virus in culture; format: cell-based; conditions: for perc_max_measured: maximum measured response of dose series; for perc_min_measured: minimum measured response of dose series
in vitro [3] = conditions: human, hela-ace2 cells, 50.0
[4] = Permeability Papp (AB) MDR1/MDCKII; conditions: In vitro MDR1-MDCKII permeability; for perc_recovery_a_to_b_mean: recovery A to B
MERS-CoV = format: cell-based; conditions: Vero 76 MERS-CoV antiviral effect
[5] = In vitro kinetic solubility
[6] = Hepatic microsomal stability, HLM; format: in vitro ADME, human; conditions: In vitro human liver microsomal stability; for perc_remaining_no_cofactor: no cofactor; for microsomal CLint: liver microsomes
SARS-CoV-2 = assay: Antiviral effect in iPSC-derived pneumocyte system; format: cell-based; conditions: iPSC pneumocytes SARS-CoV-2 antiviral effect; for perc_max_measured: maximum measured response of dose series; for perc_min_measured: minimum measured response of dose series
[7] = Hepatic microsomal stability, MLM; format: in vitro ADME
iPSC pneumocytes = iPSC pneumocytes cytotoxicity; format: cell-based; conditions: for perc_max_measured: highest measured response of the dose series; for perc_min_measured: lowest measured response of the dose series
From the text: (§1) Supplement media-1.zip/Cytotoxicity.csv, table | column: cc10; cc50; perc_min_measured; perc_max_measured

[8] = iPSC pneumocytes cytotoxicity; format: cell-based; conditions: protocol iPSC pneumocytes cytotoxicity
From the text: as §1

SARS-CoV-2 nsp3-mac1 = SARS-CoV-2 nsp3-mac1 (Severe acute respiratory syndrome coronavirus 2, UniProt P0DTD1); assay: biochemical
in vitro [9] = conditions: human
MDR1 = assay: Permeability Papp (AB) MDR1/MDCKII; conditions: dog, MDCK-MDR1, papp_a_to_b_mean, In vitro MDR1-MDCKII permeability, A to B
[10] = HeLa-ACE2 SARS-CoV-2 antiviral effect without P-gp inhibitor
[11] = In vitro mouse liver microsomal stability
[12] = In vitro mouse liver microsomal stability, no cofactor
[13] = Severe acute respiratory syndrome coronavirus 2, HeLa-ACE2 SARS-CoV-2 antiviral effect without P-gp inhibitor, read-out: ec50
[14] = Severe acute respiratory syndrome coronavirus 2, HeLa-ACE2 SARS-CoV-2 antiviral effect without P-gp inhibitor, read-out: ec90
[15] = Severe acute respiratory syndrome coronavirus 2
[16] = protocol iPSC pneumocytes cytotoxicity
[17] = IC50, nsp3-mac1 activity, Figures 1-3 and text
[18] = Severe acute respiratory syndrome coronavirus 2, HeLa-ACE2

Row | SMILES | cc10 (HeLa-ACE2 cells) | perc_max_measured (HeLa-ACE2 cells) | perc_min_measured (HeLa-ACE2 cells) | perc_max_measured [2, 10] | perc_min_measured [2, 10] | perc_recovery_a_to_b_mean ([4]; mean) | perc_remaining [6] | t_half [6] | perc_remaining_no_cofactor [6] | perc_max_measured (SARS-CoV-2) | perc_min_measured (SARS-CoV-2) | perc_remaining [7, 11] | t_half [7, 11] | perc_remaining_no_cofactor [7, 12] | EC50 [2, 13] | EC90 [2, 14] | EC90 (SARS-CoV-2; [15]) | perc_max_measured (iPSC pneumocytes; [16]) | perc_min_measured (iPSC pneumocytes; [16]) | CC50 (in vitro [9]) | other results
1 | CNC(=O)c1c[nH]c2ncnc(N[C@H](c3ccc4c(c3)S(=O)(=O)CCC4)C(C)C)c12 (single isomer, unassigned) [ASAP-0011153] | > 20.0 µM | 96.782% | 85.977% | 109.331% | 66.391% | 92.7% | 1.0% | 6.5 min | 94.0% | 88.736% | 31.934% | 0.0% | 2.2 min | 99.0% | – | – | – | – | – | – | logd (LogD; In vitro LogD): 2.7; CC50 (in vitro [1]): > 50 µM; CC50 (HeLa-ACE2 cells): > 20 µM; EC50 ([2]; HeLa-ACE2 SARS-CoV-2 antiviral effect without P-gp inhibitor, read-out: ec50): > 20 µM; EC90 ([2]; HeLa-ACE2 SARS-CoV-2 antiviral effect without P-gp inhibitor, read-out: ec90): > 20 µM; CC50 at 24 h (in vitro [3]): > 20 µM; papp_a_to_b_mean ([4]; A to B, mean): 1.61 ×10⁻⁶ cm/s; EC50 (MERS-CoV): > 32 µM; solubility_mean ([5]; In vitro kinetic solubility, ph 7.4): 336 µM (≈ 144 µg/mL); clint [6]: 258.0 µL/min/mg; EC50 (SARS-CoV-2): 6.74 µM; EC90 (SARS-CoV-2): > 50 µM; CC50 (Vero 76): > 32 µM; clint [7, 11]: 770.0 µL/min/mg; CC50 (iPSC pneumocytes): > 50 µM; cc10 (iPSC pneumocytes): > 50.0 µM; perc_max_measured (iPSC pneumocytes): 111.957%; perc_min_measured (iPSC pneumocytes): 100.111%
2 | CC(C)C(Nc1ncnc2[nH]ccc12)c1ccc2c(c1)NC(=O)CO2 (stereo not shown) [ASAP-0008302] | > 50.0 µM | 107.359% | 95.445% | 123.573% | 69.199% | – | – | – | – | 145.289% | 92.172% | – | – | – | > 50 µM | > 50 µM | > 50 µM | 98.455% | 82.288% | > 50 µM | EC50 (SARS-CoV-2; Severe acute respiratory syndrome coronavirus 2, iPSC): > 50 µM; CC50 [8]: > 50 µM; cc10 (iPSC pneumocytes; [16]): > 50.0 µM; IC50 (SARS-CoV-2 nsp3-mac1; [17]): 710 nM
3 | CCNC(=O)c1cc2c(NC(c3ccc4c(c3)OCCO4)C(C)C)ncnc2[nH]1 (stereo not shown) [ASAP-0008444] | – | 101.322% and 84.588% | 64.265% and 70.325% | 122.873% and 94.861% | 70.184% and 54.623% | 85.8% | 21.0% | 19.7 min | 103.0% | 136.848% | 15.577% | 24.0% | 19.0 min | – | – | – | > 50 µM | 91.985% | 70.899% | > 20 µM | logd (LogD): 3; EC50 [2, 18]: > 20 µM; EC90 [2, 18]: > 20 µM; Papp A→B (MDR1; mean): 2.41 ×10⁻⁶ cm/s; solubility ([5]; pH 7.4): 72 µM (≈ 28.5 µg/mL); microsomal CLint [6]: 85 µL/min/mg; EC50 (SARS-CoV-2; [15]): 41.1 µM; perc_remaining_no_cofactor ([7]; In vitro mouse liver microsomal stability; no cofactor): 109.0%; microsomal CLint ([7]; liver microsomes; In vitro mouse liver microsomal stability): 88 µL/min/mg; IC50 (SARS-CoV-2 nsp3-mac1; [17]): 240 nM; increase in potency relative to the starting point (SARS-CoV-2 nsp3-mac1; relative to ASAP-000450): 10 x
4 | CCNC(=O)c1cc2c(NC(c3ccc4c(c3)S(=O)(=O)CCC4)C(C)C)ncnc2[nH]1 (stereo not shown) [ASAP-0012349] | > 20.0 µM | 99.328% | 84.17% | 108.517% | 90.612% | – | 0.0% | 1.9 min | 102.0% | – | – | 43.0% | 30.8 min | 114.0% | > 20 µM | > 20 µM | – | – | – | > 20 µM | logd (LogD; pH 7.4, logd, In vitro LogD): 2.8; perc_recovery_a_to_b_mean ([4]; no inhibitor): 66.9%; Papp A→B (MDR1; no inhibitor): 0.532 ×10⁻⁶ cm/s; solubility ([5]; pH 7.4, solubility_mean, In vitro kinetic solubility, ph 7.4): 316 µM (≈ 140 µg/mL); microsomal CLint ([6]; human): 892 µL/min/mg; microsomal CLint ([7]; mouse, liver microsomes, In vitro mouse liver microsomal stability): 54 µL/min/mg; IC50 (SARS-CoV-2 nsp3-mac1; HTRF IC50, Figure 4B, bioactive pure enantiomer): 31 nM
